Test results as given in US4199600A, “Preservation of aqueous systems with α-halo-β-aminocrotonic acid esters” (Givaudan Corporation, priority 1978, dated 1980).
In brackets after ≈: the same amount, converted by molar mass. Where two headings read alike, the source gives them in different places.

Legend:
Type in all cases: cell-based
[1] = tested on: Pseudomonas aeruginosa; assay: Cutting oil preservative test in 3.3% cutting oil emulsion; conditions: for MIC: Pseudomonas aeruginosa, 3.3% cutting oil emulsion, 28° C., rotary shaker, read-out: Minimum Inhibitory Concentration Range
Method: (§1) In running these tests, two-fold serial dilutions of 6% solutions of the compound in dimethylformamide was added to 3.3% cutting oil elumsions. The emulsions were prepared by diluting with water a commercially available cutting oil concentrate. The emulsions were inoculated with a culture of Pseudomonas aeruginosa and incubated at 28° C. on a rotary shaker. At weekly intervals, the emulsions were examined for bacteria by conventional streakplate methods. The emulsions were then reinoculated with Pseudomonas aeruginosa and reincubated.

[2] = tested on: Aspergillus niger; assay: Cosmetic preservative test in lotion; conditions: 28° C.
Method: (§2) The α-halo-β-aminocrotonic acid esters are effective cosmetic preservatives. Two-fold serial dilutions of 6% solutions of the α-halo-β-aminocrotonic acid esters in dimethylformamide were added to a cosmetic lotion of the following formulation: The lotions were inoculated with both Pseudomonas aeruginosa and Aspergillus niger and incubated at 28° C. At weekly intervals, the lotions were examined for microorganisms by conventional streak-plate methods or by macroscopic observation. The lotions were then reinoculated with the test organisms and reincubated.

[3] = tested on: Pseudomonas aeruginosa; assay: Cosmetic preservative test in lotion; conditions: 28° C.
Method: as §2

[4] = tested on: E. aerogenes; assay: Slimicide test for pulp and paper mill water systems; conditions: Klebsiella aerogenes, 28° C.
Method: (§3) Various quantities of a 6% solution of this compound in dimethylformamide were incorporated into 24 ml of a test substrate composed as follows:
(§4) 8.4 g--Whatman No. 2 powdered cellulose
(§5) 1.0 g--Nutrient Broth, Difco
(§6) 10.0 ml--Mersize Rm 70R (Monsanto)
(§7) The samples were inoculated with four different organisms and incubated at 28° C. At weekly intervals the samples were examined for the presence of microbial growth and reinoculated during a total incubation period of four weeks.

[5] = tested on: A. niger; assay: as above; conditions: 28° C.
Method: as §3, §4, §5, §6, §7

[6] = tested on: P. aeruginosa; assay: as above; conditions: 28° C.
Method: as §3, §4, §5, §6, §7

[7] = tested on: P. Piscarium; assay: as above; conditions: 28° C.
Method: as §3, §4, §5, §6, §7

[8] = tested on: Aspergillis oryzae; assay: General antimicrobial activity, agar dilution MIC (fungi); conditions: 168 h, mildew glucose agar, 28° C., seven days, growth only at the lower concentration of the range, read-out: Minimum Inhibitory Concentration
Method: A 6% soltuion of α-halo-β-aminocrotonic acid ester in dimethyl formamide was prepared. The 6% solution was then […] serially diluted in test tubes to give the desired concentrations when mixed with agar and poured into sterile Petri dishes. For instance, 0.8 ml of a 6% stock solution plus 24.2 ml of agar gives a test concentration of 1920 mcg/ml, the highest level tested. Tryptone glucose extract agar is used for the bacterial testing; mildew glucose agar for the fungal testing. The bacterial plates were spot inoculated with 24-hour nutrient broth cultures and incubated at 37° C. for 48 hours. The fungal plates were spot inoculated with spore suspensions and incubated at 28° C. for seven days. At the end of the incubation periods, all plates were examined for growth. The minimum inhibitory concentration (MIC) for each organism is expressed in Table I. In the ranges presented, growth is observed only at the lower concentration.

[9] = tested on: Pseudomonas aeruginosa; assay: Textile lubricant preservative test; conditions: commercial textile lubricant, 28° C.
Method: as §1
The test run was the same as for the cutting oil above except that a commercial textile lubricant was substituted.

[10] = week 1, read-out: Minimum Inhibitory Concentration Range
[11] = week 3, reinoculated weekly, read-out: Minimum Inhibitory Concentration Range
[12] = week 4, reinoculated weekly, read-out: Minimum Inhibitory Concentration Range
[13] = (week 4), reinoculated weekly, read-out: Effectiveness as a Slimicide
[14] = week 1, read-out: Effectiveness as a Slimicide
[15] = week 2, reinoculated weekly, read-out: Effectiveness as a Slimicide
[16] = week 3, reinoculated weekly, read-out: Effectiveness as a Slimicide

- MIC ([1]; week 1): < 31.3 µg/mL
- MIC ([1]; week 2, reinoculated weekly): 62.5 to 125 µg/mL (≈ 418 to 836 µM)
- MIC ([1]; week 3, reinoculated weekly): 125 to 250 µg/mL (≈ 836 to 1670 µM)
- MIC ([1]; week 4, reinoculated weekly): 250 to 500 µg/mL (≈ 1670 to 3340 µM)
- MIC [2, 10]: < 125 µg/mL
- MIC [2, 11]: 1000 to 2000 µg/mL (≈ 6690 to 13400 µM)
- MIC [2, 12]: > 2000 µg/mL
- MIC ([3]; Pseudomonas aeruginosa, week 1, read-out: Minimum Inhibitory Concentration Range): < 125 µg/mL
- MIC [8]: 15 µg/mL (≈ 100 µM)
- MIC [9, 10]: 62.5 to 125 µg/mL (≈ 418 to 836 µM)
- MIC ([9]; week 2, reinoculated weekly, read-out: Minimum Inhibitory Concentration Range): 62.5 to 125 µg/mL (≈ 418 to 836 µM)
- MIC [9, 11]: 62.5 to 125 µg/mL (≈ 418 to 836 µM)
- MIC [9, 12]: 125 to 250 µg/mL (≈ 836 to 1670 µM)
SMILES: COC(=O)/C(Cl)=C(/C)N [α-Chloro-β-aminocrotonic acid methyl ester]
- effectiveness as cutting oil preservative (in words) ([1]; overall statement on Table III): effective cutting preservative
- Minimum Inhibitory Concentration Range ([3]; week 2, reinoculated weekly): < 125 µg/mL
- Minimum Inhibitory Concentration Range ([3]; week 3, reinoculated weekly): < 125 µg/mL
- Minimum Inhibitory Concentration Range ([3]; week 4, reinoculated weekly): < 125 µg/mL
- MIC [4, 13]: 250 to 500 µg/mL (≈ 1670 to 3340 µM)
- MIC [4, 14]: < 62.5 µg/mL
- MIC [4, 15]: 125 to 250 µg/mL (≈ 836 to 1670 µM)
- MIC [4, 16]: 250 to 500 µg/mL (≈ 1670 to 3340 µM)
- Effectiveness as a Slimicide ([5]; (week 4), reinoculated weekly): < 62.5 µg/mL
- Effectiveness as a Slimicide ([5]; week 2, reinoculated weekly): < 62.5 µg/mL
- Effectiveness as a Slimicide ([5]; week 3, reinoculated weekly): < 62.5 µg/mL
- MIC ([5]; Aspergillus niger, week 1, read-out: Effectiveness as a Slimicide): < 62.5 µg/mL
- Effectiveness as a Slimicide ([6]; (week 4), reinoculated weekly): < 62.5 µg/mL
- Effectiveness as a Slimicide ([6]; week 2, reinoculated weekly): < 62.5 µg/mL
- Effectiveness as a Slimicide ([6]; week 3, reinoculated weekly): < 62.5 µg/mL
- MIC ([6]; Pseudomonas aeruginosa, week 1, read-out: Effectiveness as a Slimicide): < 62.5 µg/mL
- MIC [7, 13]: 62.5 to 125 µg/mL (≈ 418 to 836 µM)
- MIC [7, 14]: < 62.5 µg/mL
- MIC [7, 15]: < 62.5 µg/mL
- MIC [7, 16]: < 62.5 µg/mL
